As usually defined, the IC50 is the point on the concentration scale where inhibition reaches its midpoint.

Molecules are shown by their SMILES.

The results in this text go back to patent US9770446B2, “Piperidine urea derivatives” (MERCK PATENT GMBH, priority 2013, dated 2017).

Experiment [1] has as its target T1, GST-tagged Tankyrase-2 (873-1166 aa) (Homo sapiens, UniProt Q9H2K2).
T1 construct: GST-tagged Tankyrase-2 (873-1166 aa)
Nature of the experiment: Tankyrase 2 autoparsylation HTRF enzyme assay. The note with it: read-out: IC50 TNKS2 enzyme assay. In kind it is biochemical. On the procedure: Biochemical activity testing of Tankyrase 1 and 2: Autoparsylation assay
The autoparsylation assay is run in two steps: the enzymatic reaction in which GST-tagged Tankyrase-1, resp Tankyrase-2 transferred biotinylated ADP-ribose to itself from biotinylated NAD as co-substrate and the detection reaction where a time resolved FRET between cryptate labelled anti-GST bound to the GST tag of the enzyme and Xlent® labelled-streptavidin bound the biotin-parsylation residue is analysed. The autoparsylation activity was detectable directly via the increase in HTRF signal.
The autoparsylation assay is performed as 384-well HTRF® (Cisbio, Codolet, France) assay format in Greiner low volume nb 384-well microtiter plates and is used for high throughput screen. 250 nM GST-tagged Tankyrase-1 (1023-1327 aa), respectively about 250 nM GST-tagged Tankyrase-2 (873-1166 aa) and 5 μM bio-NAD (Biolog, Life science Inst., Bremen, Germany) as co-substrate are incubated in a total volume of 5 μl (50 mM HEPES, 4 mM Mg-chloride, 0.05% Pluronic F-68, 1.4 mM DTT, 0.5% DMSO, pH 7.7) in the absence or presence of the test compound (10 dilution concentrations) for 90 min at 30° C. The reaction is stopped by the addition of 1 μl 50 mM EDTA solution. 2 μl of the detection solution (1.6 μM SA-Xlent® (Cisbio, Codolet, France), 7.4 nM Anti-GST-K® (Eu-labelled anti-GST, Cisbio, Codolet, France) in 50 mM HEPES, 800 mM KF, 0.1% BSA, 20 mM EDTA, 0.1% CHAPS, pH 7.0) are added. After 1 h incubation at room temperature the HTRF is measured with an Envision multimode reader (Perkin Elmer LAS Germany GmbH) at excitation wavelength 340 nm (laser mode) and emission wavelengths 615 nm and 665 nm. The ratio of the emission signals is determined. The full value used is the inhibitor-free reaction. The pharmacological zero value used is XAV-939 (Tocris) in a final concentration of 5 μM. The inhibitory values (IC50) are determined using either the program Symyx Assay Explorer® or Condosseo® from GeneData.
(In general: Time-resolved FRET reads energy transfer from a long-lived donor to a nearby acceptor.)

The target in another experiment is T2, His-tagged Parp-1 (Homo sapiens, UniProt P09874).
T2 construct: purchased Enzo Life Sciences GmbH, Lörrach, Germany
The experiment can be described thus: PARP-1 autoparsylation HTRF assay. It counts as biochemical. The source says: Description of the PARP1 Assay
Biochemical Activity Testing of PARP-1: Autoparsylation Assay
The autoparsylation assay is run in two steps: the enzymatic reaction in which His-tagged Parp-1 transfers biotinylated ADP-ribose/ADP-ribose to itself from biotinylated NAD/NAD as co-substrate and the detection reaction where a time resolved FRET between cryptate labelled anti-His antibody bound to the His tag of the enzyme and Xlent® labelled-streptavidin bound the biotin-parsylation residue is analysed. The autoparsylation activity is detectable directly via the increase in HTRF signal.
The autoparsylation assay is performed as 384-well HTRF® (Cisbio, Codolet, France) assay format in Greiner low volume nb 384-well microtiter plates. 35 nM His-tagged Parp-1 (human, recombinant, Enzo Life Sciences GmbH, Lörrach, Germany) and a mixture of 125 nM bio-NAD (Biolog, Life science Inst., Bremen, Germany) and 800 nM NAD as co-substrate are incubated in a total volume of 6 μl (100 mM Tris/HCl, 4 mM Mg-chloride, 0.01% IGEPAL® CA630, 1 mM DTT, 0.5% DMSO, pH 8, 13 ng/μl activated DNA (BPS Bioscience, San Diego, US)) in the absence or presence of the test compound (10 dilution concentrations) for 150 min at 23° C. The reaction is stopped by the addition of 4 μl of the Stop/detection solution (70 nM SA-Xlent® (Cisbio, Codolet, France), 2.5 nM Anti-His-K® (Eu-labelled anti-His, Cisbio, Codolet, France) in 50 mM HEPES, 400 mM KF, 0.1% BSA, 20 mM EDTA, pH 7.0). After 1 h incubation at room temperature the HTRF iss measured with an Envision multimode reader (Perkin Elmer LAS Germany GmbH) at excitation wavelength 340 nm (laser mode) and emission wavelengths 615 nm and 665 nm. The ratio of the emission signals is determined. The full value used is the inhibitor-free reaction. The pharmacological zero value used is Olaparib (LClabs, Woburn, US) in a final concentration of 1 μM. The inhibitory values (IC50) are determined using either the program Symyx Assay Explorer® or Condosseo® from GeneData.

T1 sequence (Q9H2K2 873-1166): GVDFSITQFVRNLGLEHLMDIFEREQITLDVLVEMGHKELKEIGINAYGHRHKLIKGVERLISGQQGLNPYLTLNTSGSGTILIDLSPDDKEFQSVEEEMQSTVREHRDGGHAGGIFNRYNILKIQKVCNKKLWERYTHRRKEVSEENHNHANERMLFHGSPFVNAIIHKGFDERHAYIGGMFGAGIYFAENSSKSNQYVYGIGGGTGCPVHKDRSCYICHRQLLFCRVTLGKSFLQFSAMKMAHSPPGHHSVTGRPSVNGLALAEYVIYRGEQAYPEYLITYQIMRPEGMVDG
T2 sequence (P09874 whole entry): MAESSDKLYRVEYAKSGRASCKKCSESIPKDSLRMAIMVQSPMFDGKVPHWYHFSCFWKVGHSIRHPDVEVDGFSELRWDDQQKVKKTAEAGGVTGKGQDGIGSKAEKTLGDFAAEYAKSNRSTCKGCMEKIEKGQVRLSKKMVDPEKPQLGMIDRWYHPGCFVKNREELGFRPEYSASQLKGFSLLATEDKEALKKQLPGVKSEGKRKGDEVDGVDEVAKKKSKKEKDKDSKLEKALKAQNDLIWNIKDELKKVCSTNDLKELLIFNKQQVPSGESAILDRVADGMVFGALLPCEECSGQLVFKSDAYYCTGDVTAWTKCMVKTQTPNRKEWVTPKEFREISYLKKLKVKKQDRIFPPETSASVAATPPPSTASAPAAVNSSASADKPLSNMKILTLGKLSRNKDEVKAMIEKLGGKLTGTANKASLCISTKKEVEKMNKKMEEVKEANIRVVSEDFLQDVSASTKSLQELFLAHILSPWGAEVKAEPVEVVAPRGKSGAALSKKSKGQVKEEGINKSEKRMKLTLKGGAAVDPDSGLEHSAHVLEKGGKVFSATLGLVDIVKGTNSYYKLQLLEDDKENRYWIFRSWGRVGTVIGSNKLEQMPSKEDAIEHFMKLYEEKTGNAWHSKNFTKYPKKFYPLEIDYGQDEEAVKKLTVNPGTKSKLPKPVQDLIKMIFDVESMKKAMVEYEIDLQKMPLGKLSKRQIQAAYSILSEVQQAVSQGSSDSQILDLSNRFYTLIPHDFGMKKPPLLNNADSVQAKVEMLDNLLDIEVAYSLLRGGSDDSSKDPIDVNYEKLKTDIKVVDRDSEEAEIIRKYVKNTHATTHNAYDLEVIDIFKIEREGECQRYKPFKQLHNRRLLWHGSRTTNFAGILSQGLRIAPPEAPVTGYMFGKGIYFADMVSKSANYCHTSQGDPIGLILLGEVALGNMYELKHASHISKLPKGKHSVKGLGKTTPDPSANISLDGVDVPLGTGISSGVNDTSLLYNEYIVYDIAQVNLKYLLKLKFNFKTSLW

As for `COc1ccc(N(C)C(=O)N2CCC(C(=O)c3ccc(F)cc3)CC2)cc1` [Compound A8, 4-(4-fluoro-benzoyl)-piperidine-1-carboxylic acid (4-methoxy-phenyl)-methylamide], the IC50 in experiment [1] fell in the range of 0.3 to 3 µM; on His-tagged Parp-1, 3 to 50 µM.

In the case of `CCN(C(=O)N1CCC(C(=O)c2cccc(OC)c2)CC1)c1ccc(OC)cc1` [Compound A28, 4-(3-methoxy-benzoyl)-piperidine-1-carboxylic acid ethyl-(4-methoxy-phenyl)amide], the IC50 in experiment [1] is below 0.3 µM; on His-tagged Parp-1 it was 3 to 50 µM.

For `O=C(c1ccccc1)C1CCN(C(=O)N2CCc3ccccc32)CC1` [Compound A16, (4-benzoyl-piperidin-1-yl)-(2,3-dihydro-indol-1-yl)-methanone], the IC50 in experiment [1] lay within 0.3 to 3 µM; at His-tagged Parp-1 it was 3 to 50 µM.

Consider `CCN(C(=O)N1CCC(C(=O)c2ccc(OC)c(C)c2)CC1)c1ccc(OC)cc1` [Compound A24, 4-(4-methoxy-3-methyl-benzoyl)-piperidine-1-carboxylic acid ethyl-(4-methoxy-phenyl)-amide], for which the IC50 lay in the range of 0.3 to 3 µM in experiment [1] and 3 to 50 µM on His-tagged Parp-1.

As for `COc1ccc(C(=O)C2CCN(C(=O)N3CCc4ccccc43)CC2)cc1` [Compound A18, (2,3-dihydro-indol-1-yl)-[4-(4-methoxy-benzoyl)-piperidin-1-yl]-methanone], the IC50 in experiment [1] lay within 0.3 to 3 µM; on His-tagged Parp-1, 3 to 50 µM.

With `COc1ccc(N(CCO)C(=O)N2CCC(C(=O)c3ccccc3)CC2)cc1` [Compound A15, 4-benzoyl-piperidine-1-carboxylic acid (2-hydroxy-ethyl)-(4-methoxy-phenyl)amide], the figures for the IC50 (in experiment [1]; against His-tagged Parp-1) were 0.3 to 3 µM and 3 to 50 µM, respectively.

In the case of `COc1ccc(N(C)C(=O)N2CCC(C(=O)c3ccccc3)CC2)cc1` [Compound A4, 4-benzoyl-piperidine-1-carboxylic acid (4-methoxy-phenyl)-methyl-amide], the values for the IC50 (in experiment [1]; on His-tagged Parp-1) were 0.3 to 3 µM and 3 to 50 µM, respectively.

For `COc1ccc(N(C)C(=O)N2CCC(C(=O)c3cccc(F)c3)CC2)cc1` [Compound A7, 4-(3-fluoro-benzoyl)-piperidine-1-carboxylic acid (4-methoxy-phenyl)-methylamide], the IC50 is 0.3 to 3 µM in experiment [1] and 3 to 50 µM at His-tagged Parp-1.

In the case of `COc1ccc(N(C)C(=O)N2CCC(C(=O)c3ccc(OC)c(F)c3)CC2)cc1` [Compound A29, 4-(3-fluoro-4-methoxy-benzoyl)-piperidine-1-carboxylic acid (4-methoxy-phenyl)-methyl-amide], the IC50 lay in the range of 0.3 to 3 µM in experiment [1] and 3 to 50 µM against His-tagged Parp-1.

Turning to `COc1ccc(C(=O)C2CCN(C(=O)N(C)c3ccc(OC)cc3)CC2)cc1` [Compound A6, 4-(4-methoxy-benzoyl)-piperidine-1-carboxylic acid (4-methoxy-phenyl)methyl-amide], the IC50 in experiment [1] was in the range of 0.3 to 3 µM; against His-tagged Parp-1, 3 to 50 µM.

In the case of `CN(C(=O)N1CCC(C(=O)c2ccc(NS(C)(=O)=O)cc2)CC1)c1ccccc1` [Compound A38, 4-(4-methanesulfonylamino-benzoyl)-piperidine-1-carboxylic acid methyl-phenyl-amide], the figures for the IC50 (in experiment [1]; at His-tagged Parp-1) were 0.3 to 3 µM and 3 to 50 µM, respectively.

Take `Cc1ccc(N(C)C(=O)N2CCC(C(=O)c3ccccc3)CC2)cc1` [Compound A2, 4-benzoyl-piperidine-1-carboxylic acid methyl-p-tolyl-amide]: the IC50 in experiment [1] is 0.3 to 3 µM; against His-tagged Parp-1, 3 to 50 µM.

As to `CCOC(=O)CN(C(=O)N1CCC(C(=O)c2ccc(OC)cc2)CC1)c1ccccc1` [Compound A40, {[4-(4-methoxy-benzoyl)-piperidine-1-carbonyl]-phenyl-amino}-acetic acid ethyl ester], the figures for the IC50 (in experiment [1]; on His-tagged Parp-1) were 0.3 to 3 µM and 3 to 50 µM, respectively.

Turning to `CN(C(=O)N1CCC(C(=O)c2ccccc2)CC1)c1ccc(F)cc1` [Compound A13, 4-benzoyl-piperidine-1-carboxylic acid (4-fluoro-phenyl)-methyl-amide], the IC50 was 0.3 to 3 µM in experiment [1] and 3 to 50 µM against His-tagged Parp-1.

As to `COc1ccc(N(C)C(=O)N2CCC(C(=O)c3cccc(C)c3)CC2)cc1` [Compound A25, 4-(3-methyl-benzoyl)-piperidine-1-carboxylic acid (4-methoxy-phenyl)methyl-amide], the figures for the IC50 (in experiment [1]; on His-tagged Parp-1) were 0.3 to 3 µM and 3 to 50 µM, respectively.

With `CCN(C(=O)N1CCC(C(=O)c2ccccc2)CC1)c1ccc(OC)cc1` [Compound A14, 4-benzoyl-piperidine-1-carboxylic acid ethyl-(4-methoxy-phenyl)-amide], the results for the IC50 (in experiment [1]; against His-tagged Parp-1) were 0.3 to 3 µM and 3 to 50 µM, respectively.

For `CCN(C(=O)N1CCC(C(=O)c2cccc(C)c2)CC1)c1ccc(OC)cc1` [Compound A26, 4-(3-methyl-benzoyl)-piperidine-1-carboxylic acid ethyl-(4-methoxy-phenyl)amide], the IC50 in experiment [1] was 0.3 to 3 µM; against His-tagged Parp-1, 3 to 50 µM.

For `COc1ccc(N(C)C(=O)N2CCC(C(=O)c3ccc(C)cc3)CC2)cc1` [Compound A5, 4-(4-methyl-benzoyl)-piperidine-1-carboxylic acid (4-methoxy-phenyl)-methylamide], the figures for the IC50 (in experiment [1]; against His-tagged Parp-1) were 0.3 to 3 µM and 3 to 50 µM, respectively.

In the case of `Cc1ccc(C(=O)C2CCN(C(=O)N3CCc4ccccc43)CC2)cc1` [Compound A17, (2,3-dihydro-indol-1-yl)-[4-(4-methyl-benzoyl)-piperidin-1-yl]-methanone], the IC50 in experiment [1] was 0.3 to 3 µM; on His-tagged Parp-1, 3 to 50 µM.

Regarding `COc1ccc(N(C)C(=O)N2CCC(C(=O)c3cccc(OC)c3)CC2)cc1` [Compound A27, 4-(3-methoxy-benzoyl)-piperidine-1-carboxylic acid (4-methoxy-phenyl)methyl-amide], the figures for the IC50 (in experiment [1]; against His-tagged Parp-1) were 0.3 to 3 µM and 3 to 50 µM, respectively.

On to `Cc1cccc(N(C)C(=O)N2CCC(C(=O)c3ccccc3)CC2)c1` [Compound A1, 4-benzoyl-piperidine-1-carboxylic acid methyl-m-tolyl-amide], for which the IC50 in experiment [1] was 0.3 to 3 µM; against His-tagged Parp-1 it was 3 to 50 µM.
